pEC50: −log10 of the molar value. Like-named read-outs stand apart in the source and are kept apart here.
Legend:
[1] = molecular target: T1, Bombyx mori EcR (VP16 fusion, CVBE switch construct) (Bombyx mori, UniProt P49881); assay: Z3 Assay (HEK-293 cells with CVBE and 6XEcRE LacZ, β-galactosidase reporter); conditions: for Fold Induction, Z3 Assay, 33 uM: 33 uM ligand; for Fold Induction, Z3 Assay, 33 uM / Fold Induction, Z3 Assay, 3.3 uM: ligand treated / DMSO treated cells; for Fold Induction, Z3 Assay, 3.3 uM: 3.3 uM ligand; for Z3 assay Rel Max FI: maximum fold induction at any concentration relative to that of GS-E ligand; for fold induction at 3.3 µM: HEK293, read-out: Fold Induction, Z3 Assay, 3.3 uM; for fold induction at 33 µM: HEK293, read-out: Fold Induction, Z3 Assay, 33 uM
T1 sequence (P49881 86-606): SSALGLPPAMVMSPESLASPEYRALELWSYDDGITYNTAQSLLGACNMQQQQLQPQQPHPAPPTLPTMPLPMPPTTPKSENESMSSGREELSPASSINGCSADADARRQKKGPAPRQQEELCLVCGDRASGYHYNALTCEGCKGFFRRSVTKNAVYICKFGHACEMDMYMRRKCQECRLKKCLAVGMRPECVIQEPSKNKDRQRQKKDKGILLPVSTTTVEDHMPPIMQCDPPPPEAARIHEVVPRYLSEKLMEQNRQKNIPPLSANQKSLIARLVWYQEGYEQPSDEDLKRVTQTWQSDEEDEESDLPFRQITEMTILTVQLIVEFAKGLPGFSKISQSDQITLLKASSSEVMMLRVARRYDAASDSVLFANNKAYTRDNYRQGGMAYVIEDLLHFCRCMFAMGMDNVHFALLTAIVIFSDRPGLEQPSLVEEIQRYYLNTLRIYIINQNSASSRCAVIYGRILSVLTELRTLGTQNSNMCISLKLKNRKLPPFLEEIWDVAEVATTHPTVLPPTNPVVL
T1 sequence (P19793 1-462 partner): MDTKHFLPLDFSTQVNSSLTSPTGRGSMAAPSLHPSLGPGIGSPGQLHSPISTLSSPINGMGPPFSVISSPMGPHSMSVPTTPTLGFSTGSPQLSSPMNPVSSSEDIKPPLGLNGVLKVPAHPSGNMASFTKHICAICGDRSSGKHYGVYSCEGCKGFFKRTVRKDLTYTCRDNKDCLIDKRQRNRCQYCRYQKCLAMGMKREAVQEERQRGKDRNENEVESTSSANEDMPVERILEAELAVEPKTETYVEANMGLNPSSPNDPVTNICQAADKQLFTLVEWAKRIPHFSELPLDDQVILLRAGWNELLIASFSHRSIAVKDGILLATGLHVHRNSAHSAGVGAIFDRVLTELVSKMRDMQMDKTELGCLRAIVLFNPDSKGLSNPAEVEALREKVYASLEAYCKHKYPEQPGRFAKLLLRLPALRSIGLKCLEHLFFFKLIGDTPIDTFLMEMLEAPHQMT
Description: Dr. F. Gage provided a population of stably transformed cells containing CVBE and 6XEcRE as described in Suhr, S. T., Gil, E. B., Senut M. C., Gage, F. H. (1998) Proc. Natl. Acad. Sci. USA 95, 7999-804. Human 293 kidney cells, also referred to as HEK-293 cells, were sequentially infected with retroviral vectors encoding first the switch construct CVBE, and subsequently the reporter construct 6XEcRE Lac Z. The switch construct contained the coding sequence for amino acids 26-546 from Bombyx mori EcR (BE) (Iatrou) inserted in frame and downstream of the VP16 transactivation domain (VBE). A synthetic ATG start codon was placed under the control of cytomegalovirus (CVBE) immediate early promoter and flanked by long terminal repeats (LTR). The reporter construct contained six copies of the ecdysone response element (EcRE) binding site placed upstream of LacZ and flanked on both sides with LTR sequences (6XEcRE).
Dilution cloning was used to isolate individual clones. Clones were selected using 450 ug/mL G418 and 100 ng/mL puromycin. Individual clones were evaluated based on their response in the presence and absence of test ligands.
Human 293 kidney cells stably transformed with CVBE and 6XEcRE LacZ were maintained in Minimum Essential Medium (Mediates, 10-010-CV) containing 10% FBS (Life Technologies, 26140-087), […] G418 (Mediates, 30-234-CR), and […] (Sigma, P-7255), at 37° C. in an atmosphere containing 5% CO2 and were subculture when they reached 75% confluence.
Z3 cells were seeded into 96-well tissue culture plates at a concentration of 2.5×10^3 cells per well and incubated at 37° C. in 5% CO2 for twenty-four hours. Stock solutions of ligands were prepared in DMSO. Ligand stock solutions were diluted 100 fold in media and 50 μL of this diluted ligand solution ([…]) was added to cells. The final concentration of DMSO was maintained at 0.03% in both controls and treatments.
Reporter gene expression was evaluated 48 hours after treatment of cells, β-galactosidase activity was measured using Gal Screen™ bioluminescent reporter gene assay system from Tropix (GSY1000). Fold induction activities were calculated by dividing relative light units (“RLU”) in ligand treated cells with RLU in DMSO treated cells. Luminescence was detected at room temperature using a Dynex MLX microtiter plate luminometer.
Flanking both constructs are long terminal repeats, G418 and puromycin are selectable markers, CMV is the cytomegalovirus promoter, VBE is coding sequence for amino acids 26-546 from Bombyx mori EcR inserted downstream of the VP16 transactivation domain, 6×EcRE is six copies of the ecdysone response element, lacZ encodes for the reporter enzyme β-galactosidase.
(§1) Each assay was conducted in two separate wells, and the two values were averaged. Fold inductions were calculated by dividing relative light units (“RLU”) in ligand treated cells with RLU in DMSO treated cells. EC50s were calculated from dose response data using a three-parameter logistic model.

[2] = molecular target: GAL4 DBD-CfEcR(DEF)/VP16AD-MmRXRE (Choristoneura fumiferana, UniProt O77240); assay: 13B3 Assay (CHO stable cell line, luciferase reporter); conditions: for Fold Induction, 13B3 Assay, 33 uM: 33 uM ligand; for Fold Induction, 13B3 Assay, 33 uM / Fold Induction, 13B3 Assay, 3.3 uM: RLU ligand treated / RLU DMSO treated cells; for Fold Induction, 13B3 Assay, 3.3 uM: 3.3 uM ligand; for 13B3 assay Rel Max FI: maximum fold induction at any concentration relative to that of GS-E ligand, CHO 13B3 cells; for fold induction at 3.3 µM: read-out: Fold Induction, 13B3 Assay, 3.3 uM; for fold induction at 33 µM: read-out: Fold Induction, 13B3 Assay, 33 uM
Description: GAL4 DBD-CfEcR(DEF)/VP16AD-MmRXRE:
The wild-type D, E, and F domains from spruce budworm Choristoneura fumiferana EcR (“CfEcR-DEF”; SEQ ID NO: 1) were fused to a GALA DNA binding domain (“Gal4DBD1-147”; SEQ ID NO: 2) and placed under the control of the SV40e promoter of pM vector (PT3119-5, Clontech, Palo Alto, Calif.). The D and E domains from Mus Musculus RXR (“MmRXR-DE”; SEQ ID NO: 11) were fused to the transactivation domain from VP16 (“VP16AD”; SEQ ID NO: 6) and placed under the control of the SV40e promoter of the pVP16 vector (PT3127-5, Clontech, Palo Alto, Calif.).
CHO cells were transiently transfected with transcription cassettes for GAL4 DBD-CJEcR(DEF) and for VP16AD-MmRXRE controlled by SV40e promoters. Stably transfected cells were selected using Hygromycin. Individually isolated CHO cell clones were transiently transfected with a GALA RE-luciferase reporter (pFR-Luc, Stratagene, La Jolla, Calif.). The 13B3 clone was selected using Zeocin.
Cells were trypsinized and diluted to a concentration of 2.5×10^4 cells mL. 100 μL of cell suspension was placed in each well of a 96 well plate and incubated at 37° C. under 5% CO2 for 24 h. Ligand stock solutions were prepared in DMSO and diluted 300 fold for all treatments. Dose response testing consisted of 8 concentrations ranging from 33 μM to 0.01 μM.
Luciferase reporter gene expression was measured 48 h after cell treatment using Bright-Glo™ Luciferase Assay System from Promega (E2650). Luminescence was detected at room temperature using a Dynex MLX microtiter plate luminometer.
as §1

[3] = read-out: Z3 assay EC50, HEK-293 Z3 cells, β-galactosidase reporter, average of two wells
[4] = read-out: 13B3 EC50, CHO 13B3 stable cell line, luciferase reporter, 48 h, average of two wells

| SMILES | Fold Induction, Z3 Assay, 33 uM ([1]; average of two wells) | Fold Induction, 13B3 Assay, 33 uM ([2]; average of two wells) | Fold Induction, Z3 Assay, 3.3 uM ([1]; average of two wells) | Z3 assay Rel Max FI ([1]; HEK-293 Z3 cells) | pEC50 [1, 3] | Fold Induction, 13B3 Assay, 3.3 uM ([2]; average of two wells) | 13B3 assay Rel Max FI [2] | pEC50 [2, 4] | pEC50 [1] | fold induction at 3.3 µM [1] | pEC50 [2] | fold induction at 3.3 µM [2] | fold induction at 33 µM [1] | fold induction at 33 µM [2] |
| --- | --- | --- | --- | --- | --- | --- | --- | --- | --- | --- | --- | --- | --- | --- |
| CCc1c(C(=O)NN(C(=O)c2cccc(C(F)(F)F)c2)C(C)(C)C)ccc2c1OCO2 [RG-115260] | 526 | 13 |  |  |  |  |  |  |  |  |  |  |  |  |
| COc1cc(C(=O)N(NC(=O)c2cccc(O)c2C)C(C)(C)C)cc(OC)c1C [RG-115220] |  | 1143 | 298 | 0.591 | 6.06 | 5 | 0.125 | < 4.30 |  |  |  |  |  |  |
| Cc1cc(C)cc(C(=O)N(NC(=O)c2ccc3c(c2F)COCO3)C(C)(C)C)c1 [RG-115068] | 802 | 1500 | 54 | 0.804 | 4.68 | 2828 | 0.722 | 6.03 |  |  |  |  |  |  |
| CNCc1c(OC)cccc1C(=O)NN(C(=O)c1cc(C)cc(C)c1)C(C)(C)C [RG-115079, 3,5-dimethyl-benzoic acid N-tert-butyl-N′-(2-methylaminomethyl-3-methoxy-benzoyl)-hydrazide] |  |  |  | 0.02 |  |  | 0.20 |  | < 4.30 | 1 | 7.70 | 3 |  |  |
| CCc1c(OC)cccc1C(=O)NN(C(=O)c1cc(F)cc(C(F)(F)F)c1)C(C)(C)C [RG-115088] | 228 | 1048 | 561 | 0.958 | 6.30 | 542 | 0.709 | 5.74 |  |  |  |  |  |  |
| Cc1c(C(=O)NN(C(=O)c2cc(F)cc(C(F)(F)F)c2)C(C)(C)C)ccc2c1OCCO2 [RG-115169] |  |  | 443 | 0.956 | 6.46 | 405 | 0.618 | 6.30 |  |  |  |  |  |  |
| COc1cccc(C(=O)NN(C(=O)c2cc(C)cc(C)c2)C(C)(C)C)c1I [RG-101528] | 1515 | 3027 | 748 | 0.923 | 5.98 | 259 | 1.111 | 4.53 |  |  |  |  |  |  |
| CC(=O)Oc1cccc(C(=O)NN(C(=O)c2cc(C)cc(C)c2)C(C)(C)C)c1C [RG-100749] | 145 | 288 | 874 | 0.951 | 5.57 |  |  |  |  |  |  |  |  |  |
| Cc1c(C(=O)NN(C(=O)c2cccc(F)c2)C(C)(C)C)ccc2c1OCCO2 [RG-115350] |  |  | 499 | 0.935 | 6.51 | 450 | 0.711 | 6.10 |  |  |  |  |  |  |
| CCc1c(OC)cccc1C(=O)NN(C(=O)c1cccc(F)c1F)C(C)(C)C [RG-115627] | 362 | 10058 | 378 | 0.840 | 6.09 | 1291 | 0.854 | 6.04 |  |  |  |  |  |  |
| COc1cccc(C(=O)NN(C(=O)c2cc(C)cc(C)c2)C(C)(C)C)c1CO [RG-115371, 3,5-dimethyl-benzoic acid N-tert-butyl-N′-(2-hydroxymethyl-3-methoxy-benzoyl)-hydrazide] |  |  |  | 0.76 |  |  | 1.44 |  | 5.52 | 249 | < 4.30 | 1 | 1770 | 1090 |
| Cc1cc(C)cc(C(=O)N(NC(=O)c2cccc(OC(C)C)c2C)C(C)(C)C)c1 [RG-101670] | 929 | 738 | 1190 | 0.853 | 6.33 | 2297 | 0.874 | 6.19 |  |  |  |  |  |  |
| COc1cccc(C(=O)NN(C(=O)c2cc(C)cc(C)c2)C(C)(C)C)c1CSC [RG-115358, 3-Methoxy-2-methylsulfanylmethyl-benzoic acid N′-tert-butyl-N′-(3,5-dimethyl-benzoyl)-hydrazide] |  |  |  | 0.48 |  |  | 0.20 |  | 5.02 | 33 | < 4.30 | 1 | 769 | 584 |
| Cc1ccc(C(=O)NN(C(=O)c2cc(C)cc(C)c2)C(C)(C)C)cc1 [RG-101542] | 324 | 439 | 1151 | 0.793 | 6.49 |  |  |  |  |  |  |  |  |  |

Reference: patent publication US9102648B1, “Bioavailable diacylhydrazine ligands for modulating the expression of exogenous genes via an ecdysone receptor complex” (Intrexon Corporation, priority 2003, dated 2015)
